Data as given in patent US7335661B2, “Fungicidal mixtures” (BASF Aktiengesellschaft, priority 2002, dated 2008).

Assays:
[1] = tested on: Botrytis cinerea; assay: Activity against gray mold on bellpepper leaves caused by Botrytis cinerea, protective application; type: in vivo; details: individual active compound, bellpepper seedlings, 5 days
Procedure: (§1) The active compounds, separately or jointly, were prepared as a stock solution with 0.25% by weight of active compound in acetone or DMSO. 1% by weight of the emulsifier Uniperol® EL (wetting agent having emulsifying and dispersing action based on ethoxylated alkylphenols) was added to this solution, and the solution was diluted with water to the desired concentration.
(§2) Evaluation was carried out by determining the infected leaf areas as a percentage. These percentages were converted into efficacies. The efficacy (W) was calculated as follows using Abbot's formula: W=(1−a/b)·100 • a corresponds to the fungal infection of the treated plants in % and • b corresponds to the fungal infection of the untreated (control) plants in %
(§3) An efficacy of 0 means that the infection level of the treated plants corresponds to that of the untreated control plants; an efficacy of 100 means that the treated plants were not infected.
(§4) The expected efficacies of the mixtures of the active compounds were determined using Colby's formula [R. S. Colby, Weeds 15, 20-22 (1967)] and compared with the observed efficacies. Colby's formula: E=x+y−x·y/100 • E expected efficacy, expressed as % of the untreated control, when using the mixture of the active compounds A and B at the concentrations a and b • x efficacy, expressed as % of the untreated control, when using active compound A at a concentration a • y efficacy, expressed as % of the untreated control, when using active compound B at a concentration b
Bellpepper seedlings of the cultivar “Neusiedler Ideal Elite” were, after 4-5 leaves were well developed, sprayed to runoff point with an aqueous suspension having the active compound concentration stated below. The next day, the treated plants were inoculated with a spore suspension of Botrytis cinerea which contained 1.7×10^6 spores/ml in a 2% strength aqueous biomalt solution. The test plants were then placed in a climatized chamber at 22-24_C and high atmospheric humidity. After 5 days, the extent of the fungus development on the leaves could be determined visually in %.
Evaluation was carried out analogously to example 1.

[2] = tested on: Puccinia recondita; assay: Curative activity against wheat leaf rust caused by Puccinia recondita; type: in vivo; details: individual active compound, 7 days
Procedure: as §1
Leaves of potted wheat seedlings of the cultivar “Kanzler” were dusted with spores of leaf rust (Puccinia recondita). For 24 hours, the pots were then placed at 20-22_C in a chamber with high atmospheric humidity (90-95%). During this time, the spores germinated and the germinal tubes penetrated into the leaf tissue. The next day, the infected plants were sprayed to runoff point with an aqueous suspension having the concentration of active compounds stated below. The suspension or emulsion was prepared as described above. After the spray coating had dried on, the test plants were cultivated in a greenhouse at 20-22_C and 65-70% relative atmospheric humidity for 7 days. The extent of rust fungus development on the leaves was then determined.
as §2, §3, §4

[3] = 4 ppm in the spray liquor, wheat seedlings cv. Kanzler

| Structure (SMILES) | Efficacy in % of the untreated control ([1]; 0.25 ppm in the spray liquor) | Efficacy in % of the untreated control ([1]; 1 ppm in the spray liquor) | Efficacy in % of the untreated control ([1]; 4 ppm in the spray liquor) | Efficacy in % of the untreated control ([2]; 1 ppm in the spray liquor, wheat seedlings) | Efficacy in % of the untreated control [2, 3] | Efficacy in % of the untreated control ([2]; 0.25 ppm in the spray liquor, wheat seedlings) |
| --- | --- | --- | --- | --- | --- | --- |
| CC1CCN(c2c(-c3c(F)cc(F)cc3F)c(Cl)nc3ncnn23)CC1 [I, 5-chloro-7-(4-methylpiperidin-1-yl)-6-(2,4,6-trifluorophenyl)-[1,2,4]triazolo[1,5-a]pyrimidine] | 0% | 37% | 68% | 0% | 56% |  |
| O=C(Nc1ccccc1-c1ccc(Cl)cc1)c1cccnc1Cl [II-5, boscalid, reference compound] | 0% | 0% |  |  | 0% | 0% |
